Test results: US11767504B2, “Albumin compositions and methods of producing and using same” (Albcura Corporation, priority 2020, dated 2023)

Test system: Insulin
Assay: Assay of insulin aggregation stabilization by various albumin (absorbance at 360 nm)
Assay type: biochemical
Conditions: 1−(A360 with albumin)/(A360 of (−) group), at time point where control A360 near 0.35; albumin samples 2 mg/mL mixed 1:1 with 0.7 mg/mL insulin working solution, 37° C.
Method: Various albumin samples were diluted to 2 mg/mL in purified water. An assay working solution was prepared containing 60 mM of HEPES (pH=7.4), 300 mM of NaCl, 30 mM of 2-mercaptoethanol, and 0.7 mg/mL of Insulin. In a 96-well plate, 100 μL of the assay working solution was mixed with 100 μL of each albumin sample. The plate was incubated at 37° C. inside a plate reader, and the absorbance at 360 nm was measured every 30 seconds for 60 minutes.
The absorbance data at 360 nm (A360) of each group was picked at the time point where the A360 of the control group (without albumin, labeled as (−)) was near 0.35. […] Stabilizing Efficiency %=1−(A360 of experimental group with albumin)/(A360 of (−) group)

fatty acid free BSA: Fatty acid-free BSA from Sigma Aldrich (A8806)
Stabilizing Efficiency: 53%
